Assay results reported in PubChem BioAssay AID298 (DTP/NCI, 2004).
Several values for one entry are separate records, joined by “and”; a condition that tells them apart may be missing. Identical values can stand only once. Inconclusive results are not listed.

Tested on: MX-1 breast xenograft, intrarenal, nude mice, tumor weight
Test: NCI In Vivo Anticancer Drug Screen. Data for tumor model Human Mammary Carcinoma MX-1 Xenograft (intrarenal inoculation) in NU/NU BALB/C (nude) mice
Conditions: endpoint: mean tumor weight change, higher = larger tumour
Procedure, shortened: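 Antitumor activity is expressed as a T/C ratio. The treated group's tumor size or survival is compared against the vehicle-treated control group in mice bearing transplanted tumors.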

[1] = dose: 100.0 mg/kg/injection, schedule: Q04DX003 (sc), vehicle: saline
[2] = dose: 150.0 mg/kg/injection, schedule: Q04DX003 (sc), vehicle: saline
[3] = dose: 200.0 mg/kg/injection, schedule: Q04DX003 (sc), vehicle: saline
[4] = dose: 300.0 mg/kg/injection, schedule: Q04DX003 (sc), vehicle: saline
[5] = dose: 400.0 mg/kg/injection, schedule: Q04DX003 (sc), vehicle: saline
[6] = dose: 800.0 mg/kg/injection, schedule: Q04DX003 (sc), vehicle: saline
[7] = dose: 1200.0 mg/kg/injection, schedule: Q04DX003 (sc), vehicle: saline

## Nc1ncn(C2OC(CO)C(O)C2O)c(=O)n1 (stereo unspecified)
dose: 0.19 mg/kg/injection, schedule: Q01DX010 (ip), vehicle: saline
  T/C: 307 % of control
dose: 0.19 mg/kg/injection, schedule: Q01DX010 (sc), vehicle: saline
  T/C: 83 % of control
dose: 0.38 mg/kg/injection, schedule: Q01DX010 (ip), vehicle: saline
  T/C: 261 % of control
dose: 0.63 mg/kg/injection, schedule: Q04DX003 (ip), vehicle: saline
  T/C: 73 % of control
dose: 0.63 mg/kg/injection, schedule: Q04DX003 (sc), vehicle: saline
  T/C: 22 % of control
dose: 0.75 mg/kg/injection, schedule: Q01DX010 (ip), vehicle: saline
  T/C: 86 % of control
dose: 0.75 mg/kg/injection, schedule: Q01DX010 (sc), vehicle: saline
  T/C: 69 % of control
dose: 1.25 mg/kg/injection, schedule: Q04DX003 (ip), vehicle: saline
  T/C: 91 % of control
dose: 1.25 mg/kg/injection, schedule: Q04DX003 (sc), vehicle: saline
  T/C: 40 % of control
dose: 1.5 mg/kg/injection, schedule: Q01DX010 (ip), vehicle: saline
  T/C: 249 % of control
dose: 2.5 mg/kg/injection, schedule: Q04DX003 (ip), vehicle: saline
  T/C: 94 % of control
dose: 2.5 mg/kg/injection, schedule: Q04DX003 (sc), vehicle: saline
  T/C: 36 % of control
dose: 5.0 mg/kg/injection, schedule: Q04DX003 (ip), vehicle: saline
  T/C: 31 % of control
dose: 10.0 mg/kg/injection, schedule: Q04DX003 (sc), vehicle: saline
  T/C: 23 % of control
[1]
  T/C: 15 % of control
[2]
  T/C: 21 % of control
[3]
  T/C: 15 % of control
[4]
  T/C: 8 % of control
[5]
  T/C: 4 % of control
dose: 600.0 mg/kg/injection, schedule: Q04DX003 (sc), vehicle: saline
  T/C: -45 % of control
[6]
  T/C: -50 % of control
[7]
  T/C: -43 % of control

## CC(=O)C1=C(O)C2(O)C(=O)c3c(c(C)c4ccc(C)c(O)c4c3O)CC2C(N)C1=O (stereo unspecified)
[1]
  T/C: 89 % of control
[3]
  T/C: 107 % of control
[5]
  T/C: 98 % of control
[6]
  T/C: 84 % of control

## O=C(Nc1ccccc1CCl)Nc1ccccc1CCl
dose: 1200.0 mg/kg/injection, schedule: Q04DX003 (ip), vehicle: saline with Tween-80
  T/C: 9 % of control and 12 % of control and 20 % of control

## CN(C)[C@@H]1C(=O)C(C(N)=O)=C(O)[C@@]2(O)C(=O)C3=C(O)c4c(O)ccc(Cl)c4[C@@](C)(O)[C@H]3C[C@@H]12
[4]
  T/C: 155 % of control
[7]
  T/C: 113 % of control
dose: 2400.0 mg/kg/injection, schedule: Q04DX003 (sc), vehicle: saline
  T/C: 70 % of control

## C/C(=N\NC(=S)N1CC2CCC(CC2)C1)c1cccc(C)n1
dose: 12.5 mg/kg/injection, schedule: Q04DX003 (ip), vehicle: saline with Tween-80
  T/C: 77 % of control
dose: 25.0 mg/kg/injection, schedule: Q04DX003 (ip), vehicle: saline with Tween-80
  T/C: 62 % of control
dose: 50.0 mg/kg/injection, schedule: Q04DX003 (ip), vehicle: saline with Tween-80
  T/C: 78 % of control

## ClC1(Cl)Cc2ccccc21
dose: 150.0 mg/kg/injection, schedule: Q04DX003 (ip), vehicle: saline with Tween-80
  T/C: 109 % of control
dose: 300.0 mg/kg/injection, schedule: Q04DX003 (ip), vehicle: saline with Tween-80
  T/C: 109 % of control
dose: 600.0 mg/kg/injection, schedule: Q04DX003 (ip), vehicle: saline with Tween-80
  T/C: 45 % of control

## O=NN(CCCl)C(=O)NCCCl
dose: 12.0 mg/kg/injection, schedule: Q04DX003 (ip), vehicle: saline + alcohol
  T/C: 60 % of control and 74 % of control
dose: 15.0 mg/kg/injection, schedule: Q04DX003 (sc), vehicle: Klucel (hydroxypropylcellulose) (HPC)
  T/C: 30 % of control
dose: 18.0 mg/kg/injection, schedule: Q04DX003 (ip), vehicle: saline + alcohol
  T/C: 27 % of control and 49 % of control
dose: 30.0 mg/kg/injection, schedule: Q04DX003 (sc), vehicle: Klucel (hydroxypropylcellulose) (HPC)
  T/C: 1 % of control

## C=CC1(C)CC(=O)C2(O)C(C)(O1)C(OC(C)=O)C(O)C1C(C)(C)CCC(O)C12C (stereo unspecified)
dose: 8.0 mg/kg/injection, schedule: Q04DX003 (ip), vehicle: DMSO
  T/C: 159 % of control
dose: 16.0 mg/kg/injection, schedule: Q04DX003 (ip), vehicle: DMSO
  T/C: 100 % of control and 115 % of control
dose: 64.0 mg/kg/injection, schedule: Q04DX003 (ip), vehicle: DMSO
  T/C: 109 % of control

## Cc1ccc2c(c1)C1(C)OC(C=CC1=O)O2 (stereo unspecified)
dose: 150.0 mg/kg/injection, schedule: Q04DX003 (ip), vehicle: Klucel (hydroxypropylcellulose) (HPC)
  T/C: 94 % of control

## O=P1(NCCCl)OCCCN1CCCl (stereo unspecified)
[2]
  T/C: -32 % of control

## c1ccc(P(CCNCCP(c2ccccc2)c2ccccc2)c2ccccc2)cc1
dose: 100.0 mg/kg/injection, schedule: Q04DX003 (ip), vehicle: saline with Tween-80
  T/C: 111 % of control
dose: 200.0 mg/kg/injection, schedule: Q04DX003 (ip), vehicle: saline with Tween-80
  T/C: 106 % of control
dose: 800.0 mg/kg/injection, schedule: Q04DX003 (ip), vehicle: saline with Tween-80
  T/C: 81 % of control

## O=C(Nc1cccnc1)c1ccc([N+](=O)[O-])s1
dose: 50.0 mg/kg/injection, schedule: Q04DX003 (ip), vehicle: saline
  T/C: 92 % of control
dose: 100.0 mg/kg/injection, schedule: Q04DX003 (ip), vehicle: saline
  T/C: 81 % of control and 90 % of control
dose: 200.0 mg/kg/injection, schedule: Q04DX003 (ip), vehicle: saline
  T/C: 92 % of control and 103 % of control
dose: 400.0 mg/kg/injection, schedule: Q04DX003 (ip), vehicle: saline
  T/C: 80 % of control
dose: 800.0 mg/kg/injection, schedule: Q04DX003 (ip), vehicle: saline
  T/C: 105 % of control

## OCCN1CCN(CC/C=C2/c3ccccc3Sc3ccc(C(F)(F)F)cc32)CC1
dose: 30.0 mg/kg/injection, schedule: Q04DX003 (sc), vehicle: saline
  T/C: 65 % of control
dose: 60.0 mg/kg/injection, schedule: Q04DX003 (sc), vehicle: saline
  T/C: 43 % of control and 44 % of control
dose: 120.0 mg/kg/injection, schedule: Q04DX003 (sc), vehicle: saline
  T/C: 11 % of control and 33 % of control
